# Experiments:
# [1] = target: T1, human adenosine A1 receptor (Homo sapiens, UniProt P30542); experiment: Reporter gene assay (CRE/SPAP) in CHO cells, agonist activity, adenosine A1; assay type: cell-based; conditions: CHO cells stably transfected with human adenosine A1 receptor; inhibition of forskolin-stimulated SPAP production; potency relative to NECA=1
# T1 construct: expressed in transfected cells; host or cells: Chinese hamster ovary (CHO) cells containing CRE/SPAP/HYG reporter elements
# T1 sequence (P30542 1-326): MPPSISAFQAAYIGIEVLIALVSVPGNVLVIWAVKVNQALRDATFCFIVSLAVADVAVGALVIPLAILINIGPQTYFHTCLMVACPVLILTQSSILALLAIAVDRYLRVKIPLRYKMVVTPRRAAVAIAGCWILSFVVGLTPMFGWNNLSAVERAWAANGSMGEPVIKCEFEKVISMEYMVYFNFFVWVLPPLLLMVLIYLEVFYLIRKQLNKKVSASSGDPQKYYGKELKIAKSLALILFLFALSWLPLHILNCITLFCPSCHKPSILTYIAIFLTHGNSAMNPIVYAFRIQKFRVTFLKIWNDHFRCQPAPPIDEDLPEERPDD
# Method: (§1) Reporter Gene Experiments
# Agonist activity was measured in Chinese hamster ovary (CHO) cells containing the CRE/SPAP/HYG (CRE=cyclic AMP response element; HYG=hygromycin resistance; SPAP=secreted placental alkaline phosphatase) reporter gene elements, which upon stimulation of cAMP levels produced SPAP. A cell line was used, which was stably transfected with either the human adenosine Al receptor or the human adenosine A3 receptor in addition to the above elements. Cells were plated out in 96-well plates in culture medium and incubated at 37° C. for 1 hour. […] 15 Min later, cAMP levels were stimulated by addition of a maximal concentration of forskolin. All cells were then incubated for a further 5 hours at 37° C., and cooled to room temperature, after which a substrate for the phosphatase (para-nitrophenol phosphate, pNPP), which is converted by SPAP to a coloured reagent) was then added and the 96-well plates were read in a plate reader. From these readings, the concentration-dependence of the inhibition by the agonist for forskolin-stimulated SPAP production can be calculated.
# (§2) (ECR=equipotent concentration ratio relative to NECA=1)
# [2] = target: T2, human adenosine A3 receptor (Homo sapiens, UniProt P0DMS8); experiment: Reporter gene assay (CRE/SPAP) in CHO cells, agonist activity, adenosine A3; assay type: cell-based; conditions: CHO cells stably transfected with human adenosine A3 receptor; inhibition of forskolin-stimulated SPAP production; potency relative to NECA=1
# T2 construct: expressed in transfected cells; host or cells: Chinese hamster ovary (CHO) cells containing CRE/SPAP/HYG reporter elements
# T2 sequence (P0DMS8 1-318): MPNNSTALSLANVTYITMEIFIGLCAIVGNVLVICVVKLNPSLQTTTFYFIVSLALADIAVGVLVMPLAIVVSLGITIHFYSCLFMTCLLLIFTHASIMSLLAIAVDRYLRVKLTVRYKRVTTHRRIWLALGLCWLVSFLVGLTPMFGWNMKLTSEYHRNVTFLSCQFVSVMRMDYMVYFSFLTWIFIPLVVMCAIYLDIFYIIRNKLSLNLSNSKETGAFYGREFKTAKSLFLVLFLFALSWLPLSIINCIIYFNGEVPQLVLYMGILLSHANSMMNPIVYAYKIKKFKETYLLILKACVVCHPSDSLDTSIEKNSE
# Method: as §1
# Agonist activity was measured in Chinese hamster ovary (CHO) cells containing the CRE/SPAP/HYG (CRE=cyclic AMP response element; HYG=hygromycin resistance; SPAP=secreted placental alkaline phosphatase) reporter gene elements, which upon stimulation of cAMP levels produced SPAP. A cell line was used, which was stably transfected with either the human adenosine Al receptor or the human adenosine A3 receptor in addition to the above elements. Cells were plated out in 96-well plates in culture medium and incubated at 37° C. for 1 hour. For measurement of potency, agonists were added to the appropriate wells at a concentration range of approximately 10^−10-10^−5M. 15 Min later, cAMP levels were stimulated by addition of a maximal concentration of forskolin. All cells were then incubated for a further 5 hours at 37° C., and cooled to room temperature, after which a substrate for the phosphatase (para-nitrophenol phosphate, pNPP), which is converted by SPAP to a coloured reagent) was then added and the 96-well plates were read in a plate reader. From these readings, the concentration-dependence of the inhibition by the agonist for forskolin-stimulated SPAP production can be calculated. One of the agonists tested on each 96-well plate was the standard non-selective agonist, N-ethylcarboxamidoadenosine (NECA), and the potency of all test agonists is expressed relative to that of the NECA standard.
# as §2
SMILES,"A1 Receptor, Reporter Gene Assay ECR (equipotent concentration ratio relative to NECA=1) [1]","A3 Receptor, Reporter Gene Assay ECR (equipotent concentration ratio relative to NECA=1) [2]"
"OCC(O)CNc1nc(Cl)nc2c1ncn2[C@@H]1O[C@H](CF)[C@@H](O)[C@H]1O (stereo partly shown) [Example 16, 2-Chloro-5′-deoxy-N-(2,3-dihydroxy-propyl)-5′-fluoro-adenosine]",7.29,>240.00
"CCCCOC(=O)N1CCC(Nc2nc(Cl)nc3c2ncn3[C@@H]2O[C@H](CF)[C@@H](O)[C@H]2O)CC1 [Example 26, 4-[2-Chloro-9-(5S-fluoromethyl-3R,4S-dihydroxy-tetrahydro-furan-2R-yl)-9H-purin-6-ylamino]-piperidine-1-carboxylic acid butyl ester]",4.50,>233.00

# Other lines, results leading:
"A1 Receptor, Reporter Gene Assay ECR (equipotent concentration ratio relative to NECA=1) [1]","A3 Receptor, Reporter Gene Assay ECR (equipotent concentration ratio relative to NECA=1) [2]",SMILES
66.80,>162.00,"CC(=O)N1CCC(Nc2nc(Cl)nc3c2ncn3[C@@H]2O[C@H](CF)[C@@H](O)[C@H]2O)CC1 [Example 10, 1-{4-[2-Chloro-9-(5S-fluoromethyl-3R,4S-dihydrox-tetrahydro-furan-2R-yl)-9H-purin-6-ylamino]-piperidin-1-yl}-ethanone]"
7.83,>233.00,"CC(C)(C)CNc1nc(Cl)nc2c1ncn2[C@@H]1O[C@H](CF)[C@@H](O)[C@H]1O [Example 24, 2-Chloro-5′-deoxy-N-(2,2-dimethyl-propyl)-5′-fluoro-adenosine]"
0.71,>353.00,"CNS(=O)(=O)CCNc1ncnc2c1ncn2[C@@H]1O[C@H](CF)[C@H](O)[C@H]1O [Example 18, 2-[9-(5S-Fluoromethyl-3R,4R-dihydroxy-tetrahydro-furan-2R-yl)-9H-purin-6-ylamino]-ethanesulfonic acid methylamide]"

# Reference: patent publication US6455510B1, “Chemical Compounds” (SmithKline Beecham Corporation, priority 1997, dated 2002)
